Measured values taken from ChEMBL document CHEMBL5257138, “Cytosolic Enzymes Generate Cannabinoid Metabolites 7-Carboxycannabidiol and 11-Nor-9-carboxytetrahydrocannabinol” (ACS Med Chem Lett, 2023).

Legend:
Assay type in all cases: ADME, subcellular
[1] = Drug metabolism in human liver S9 fraction assessed as reduction in metabolite 11-COOH-THC formation by measuring hydralazine IC50 incubated for 20 mins in presence of NAD+ by LC-MS/MS analysis
[2] = Drug metabolism in human liver S9 fraction assessed as reduction in metabolite 11-COOH-THC formation by measuring WIN18446 IC50 incubated for 10 mins in presence of NAD+ by LC-MS/MS analysis
[3] = Drug metabolism in human liver S9 fraction assessed as metabolite 11-COOH-THC formation at 1 uM incubated for 10 mins in presence of NAD+ by LC-MS/MS analysis; settings: s9, 10 min
[4] = Drug metabolism in human liver S9 fraction assessed as metabolite 7-COOH-CBD formation at 1 uM incubated for 20 mins in presence of NADPH and NAD+ by LC-MS/MS analysis; settings: s9, 20 min
[5] = Drug metabolism in human liver cytosol assessed as reduction in metabolite 7-COOH-CBD formation by measuring WIN18446 IC50 in presence of NAD+ measured after 30 mins by LC-MS/MS analysis
[6] = Drug metabolism in human liver cytosol assessed as metabolite 7-COOH-CBD formation at 1 uM incubated for 20 mins in presence of NADPH and NAD+ by LC-MS/MS analysis
[7] = Drug metabolism in human liver S9 fraction assessed as metabolite 7-COOH-CBD formation at 1 uM incubated for 20 mins in presence of NADPH by LC-MS/MS analysis; settings: s9, 20 min

Structure (SMILES)	IC50 [1] [µM]	IC50 [2] [µM]	Drug metabolism [3]	Drug metabolism [4]	IC50 [5] [µM]	Drug metabolism [6]	Drug metabolism [7]
CCCCCc1cc(O)c2c(c1)OC(C)(C)[C@@H]1CCC(CO)=C[C@@H]21	0.053	> 60	Metabolite_Detected				
C=C(C)[C@@H]1CCC(CO)=C[C@H]1c1c(O)cc(CCCCC)cc1O				Metabolite_Detected	0.285	Metabolite_Detected	Metabolite_Notdetected
